Laboratory results published in patent US8871269B2, “Method for the preparation of controlled release formulations” (Evonik Corporation, priority 2003, dated 2014).

Test: Stability of free peptide incubated in release medium (HPLC)
Type: physicochemical
Conditions: free peptide incubated in release medium (PBS, pH 7.2, 37 C), after 49 days
Method: Octreotide acetate as the free peptide was measured to be 95% intact by high-pressure liquid chromatography (HPLC) following incubation in the release medium (PBS, pH 7.2, 37° C.) after 49 days. In contrast, incubation of octreotide acetate PLGA microparticle formulations produced 55% of modified peptide species after 70 days in the release medium (PBS, pH 7.2, 37° C., Table 2). […] The masses found were consistent with random acylation, for example, peptide plus one or two glycolic or lactic acid monomers in any combination. It may be that acylation products arise from attack on PLGA fragments or the polymer backbone by nucleophilic moieties in octreotide. At a lower pH these moieties likely would be protonated reducing their nucleophilicity and consequently the amount of acylated product. It was observed that formation of acylated byproducts for octreotide acetate PLGA microparticles incubated in 100 mM sodium acetate (NaOAc, pH 4.0) buffer was reduced to 1.25% at 49 days, in marked contrast to the results for PBS buffer (55%).

## C[C@@H](O)[C@@H]1NC(=O)[C@H](CCCCN)NC(=O)[C@@H](Cc2c[nH]c3ccccc23)NC(=O)[C@H](Cc2ccccc2)NC(=O)[C@@H](NC(=O)[C@H](N)Cc2ccccc2)CSSC[C@@H](C(=O)N[C@H](CO)[C@@H](C)O)NC1=O [Octreotide acetate]
  Peptide intact by HPLC: 95%
